Data taken from PubChem BioAssay AID1963837 (Molecular Pharmacology Branch, DTP, NCI, 2024).

Tested on: 843126-344-R-J1-PDC complex spheroid viability
Assay: Anticancer human tumor 843126-344-R-J1-PDC patient-derived melanoma cell line growth inhibition [POLQ]
Conditions: for IC50: curve of first compound; for viability, T/C: stronger effect = lower value; active = viability on the fitted dose curve at most 10% of control; inactive = the rest
Description: Multicellular complex tumor spheroid response to Polymerase (POL) inhibitors (novobiocin, ART-558, RP6685) in combination with a variety of drugs and investigational agents in selected tumor cell lines
The POL inhibitors (novobiocin, ART-558, and RP6685) were evaluated both individually and in combination with standard of care and investigational anticancer small molecules within a complex spheroid model of solid tumors. . Complex spheroids include a stromal component modeled by human endothelial cells (HUVEC) and fibroblasts modeled by human mesenchymal stem cells (MSCs). The concentration ranges selected for each drug and investigational agent were based upon clinically achievable concentrations if the clinical Cmax of the agent was known.
Compounds. The drugs and investigational agents: novobiocin (NSC847541), ART-558 (NSC835418), RP-6685 (NSC848927), peposertib (NSC802822), ceralasertib (NSC780249), elimusertib (NSC800525), camonsertib (NSC841442), AZD-1390 (NSC803789), olaparib (NSC753686), talazoparib (NSC767125), rucaparib (NSC756644), sotorasib (NSC818433), MRTX-1133 (NSC836407), SN-38 (NSC673596), topotecan (NSC609699), epotoside (NSC141540), doxorubicin (NSC123127), gemcitabine (NSC613327), 5-fluorouracil (NSC19893), paclitaxel (NSC125973), vemurafenib (NSC761431), MSA-2 (NSC828583), SN-011 (NSC837082), adavosertib (NSC754352), prexasertib (NSC758257), carboplatin (NSC241240) and oxaliplatin (NSC266046), were obtained from the National Cancer Institute (NCI) Developmental Therapeutics Program Chemical Repository (21). The FDA-approved anticancer drug set is available from the Developmental Therapeutics Program at https://dtp.cancer.gov/organization/dscb/obtaining/. […] The stock solutions were prepared in dimethyl sulfoxide (DMSO, Sigma-Aldrich, St. Louis, MO, cat. D2650), except for the platinum compounds which were prepared in saline (Quality Biological, Gaithersburg, MD, cat. 114-055-101), at 800-fold the tested concentration and stored at -70 degrees C prior to their use. All drugs and investigational agents were tested over a range starting from a high concentration at or near the clinical Cmax and decreasing in half-log increments. If the clinical Cmax for an agent had not been determined, the highest concentration tested was 10 microM, except for SN-38, which was tested at a high concentration of 1 microM.
Cell Culture. All cells were maintained in an incubator at 37 degrees C and 5% CO2 with 95% humidity. The PDC lines were cultured according to standard operating procedures established by the NCI PDMR (https://pdmr.cancer.gov). Table 3 of the manuscript, lists the cell lines along with the number of the three cell types plated to form the mct-spheroids and media for tumor cell growth. After thawing, all PDC lines, except 997537-175-T-J1-PDC and 415267-285-R-J2-PDC, were cultured in Matrigel-coated flasks prepared with a working solution of 1X Ham's F-12 nutrient mix, without supplementation (Thermo Fisher Scientific, cat. 11765054), 100 U/mL penicillin-streptomycin (Thermo Fisher Scientific, cat. 15140122), and 2.5% Matrigel (Corning Inc., Corning, NY, cat. 354248) for the first three passages. The two PDC lines 997537-175-T-J1-PDC and 415267-285-R-J2-PDC were cultured on uncoated flasks. The 857933-349-R-J2-PDC line was cultured in 6C/Colon 1B media containing advanced DMEM/F-12 (Thermo Fisher Scientific, cat. 12634028), 10 mM HEPES (Thermo Fisher Scientific, cat. 15630080), 1X GlutaMAX supplement (Thermo Fisher Scientific, cat. 35050061), 0.1 mg/mL primocin (InvivoGen, San Diego, CA, cat. ant-pm-2), 10% defined fetal bovine serum, heat inactivated (HyClone Laboratories Inc., Logan, UT, cat. SH30070.03HI), 50% L-WRN conditioned media (ATCC, cat. CRL-3276), 1.25 mM N-Acetyl-L-cysteine (Sigma-Aldrich, cat. A9165), 10 mM nicotinamide (Sigma-Aldrich, cat. N0636), 1X B-27 supplement (Thermo Fisher Scientific, cat. 17504044), 1X N-2 supplement (Thermo Fisher Scientific, cat. […]

[1] = second compound 0.0316 µM, first compound 0.0316 µM
[2] = second compound 0.0316 µM, first compound 0.1 µM
[3] = second compound 0.0316 µM, first compound 0.316 µM
[4] = second compound 0.0316 µM, first compound 1 µM
[5] = second compound 0.0316 µM, first compound 3.16 µM
[6] = second compound 0.0316 µM, first compound 10 µM
[7] = second compound 0.1 µM, first compound 0.0316 µM
[8] = second compound 0.1 µM, first compound 0.1 µM
[9] = second compound 0.1 µM, first compound 0.316 µM
[10] = second compound 0.1 µM, first compound 1 µM
[11] = second compound 0.1 µM, first compound 3.16 µM
[12] = second compound 0.1 µM, first compound 10 µM
[13] = second compound 0.316 µM, first compound 0.0316 µM
[14] = second compound 0.316 µM, first compound 0.1 µM
[15] = second compound 0.316 µM, first compound 0.316 µM
[16] = second compound 0.316 µM, first compound 1 µM
[17] = second compound 0.316 µM, first compound 3.16 µM
[18] = second compound 0.316 µM, first compound 10 µM
[19] = second compound 1 µM, first compound 0.0316 µM
[20] = second compound 1 µM, first compound 0.1 µM
[21] = second compound 1 µM, first compound 0.316 µM
[22] = second compound 1 µM, first compound 1 µM
[23] = second compound 1 µM, first compound 3.16 µM
[24] = second compound 1 µM, first compound 10 µM
[25] = second compound 3.16 µM, first compound 0.0316 µM
[26] = second compound 3.16 µM, first compound 0.1 µM
[27] = second compound 3.16 µM, first compound 0.316 µM
[28] = second compound 3.16 µM, first compound 1 µM
[29] = second compound 3.16 µM, first compound 3.16 µM
[30] = second compound 3.16 µM, first compound 10 µM
[31] = second compound 10 µM, first compound 0.0316 µM
[32] = second compound 10 µM, first compound 0.1 µM
[33] = second compound 10 µM, first compound 0.316 µM
[34] = second compound 10 µM, first compound 1 µM
[35] = second compound 10 µM, first compound 3.16 µM
[36] = second compound 10 µM, first compound 10 µM
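For viability, T/C in this document: spheroids exposed to drugs for seven days before readout.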

COc1cccc2c1C(=O)c1c(O)c3c(c(O)c1C2=O)CC(O)(C(=O)CO)CC3OC1CC(N)C(O)C(C)O1 (centres undefined) + Cc1cccc(N(C)C(=O)C2C(O)CCN2c2nc(C)cc(C(F)(F)F)c2C#N)c1
204 nM: IC50 (second compound 1 µM)
152 nM: IC50 (second compound 10 µM)
active: viability, T/C [5] 3.5% | viability, T/C [6] 3.68% | viability, T/C [11] 4.9% | viability, T/C [12] 3.68% | viability, T/C [17] 3.96% | viability, T/C [18] 3.01% | viability, T/C [23] 3.66% | viability, T/C [24] 3.67% | viability, T/C [28] 5.9% | viability, T/C [29] 3.46% | viability, T/C [30] 3.96% | viability, T/C [34] 4.4% | viability, T/C [35] 3.99% | viability, T/C [36] 3.14%
178 nM: IC50 (second compound 0.0316 µM)
inactive: viability, T/C [1] 92.8% | viability, T/C [2] 62.1% | viability, T/C [3] 39.9% | viability, T/C [4] 11% | viability, T/C [7] 87.9% | viability, T/C [8] 72.7% | viability, T/C [9] 45.2% | viability, T/C [10] 9.74% | viability, T/C [13] 92.7% | viability, T/C [14] 60.7% | viability, T/C [15] 38.6% | viability, T/C [16] 10.6% | viability, T/C [19] 90.8% | viability, T/C [20] 69.5% | viability, T/C [21] 39.7% | viability, T/C [22] 7.4% | viability, T/C [25] 74.3% | viability, T/C [26] 64% | viability, T/C [27] 37.2% | viability, T/C [31] 68.8% | viability, T/C [32] 63.3% | viability, T/C [33] 26.3%
184 nM: IC50 (second compound 3.16 µM)
168 nM: IC50 (second compound 0.316 µM)
245 nM: IC50 (second compound 0.1 µM)

C#Cc1c(F)ccc2cc(O)cc(-c3ncc4c(N5CC6CCC(C5)N6)nc(OCC56CCCN5CC(F)C6)nc4c3F)c12 (centres undefined) + Cc1cccc(N(C)C(=O)C2C(O)CCN2c2nc(C)cc(C(F)(F)F)c2C#N)c1
inactive: viability, T/C [1] 88% | viability, T/C [2] 81.1% | viability, T/C [3] 79.9% | viability, T/C [4] 71.3% | viability, T/C [5] 95.8% | viability, T/C [6] 74% | viability, T/C [7] 103% | viability, T/C [8] 98.6% | viability, T/C [9] 92.9% | viability, T/C [10] 76% | viability, T/C [11] 118% | viability, T/C [12] 79.6% | viability, T/C [13] 96.1% | viability, T/C [14] 105% | viability, T/C [15] 91.2% | viability, T/C [16] 80.2% | viability, T/C [17] 75.4% | viability, T/C [18] 77.4% | viability, T/C [19] 77.1% | viability, T/C [20] 106% | viability, T/C [21] 82.8% | viability, T/C [22] 89.9% | viability, T/C [23] 91.2% | viability, T/C [24] 79% | viability, T/C [25] 83.5% | viability, T/C [26] 80.3% | viability, T/C [27] 87.3% | viability, T/C [28] 93.7% | viability, T/C [29] 82.7% | viability, T/C [30] 69.8% | viability, T/C [31] 102% | viability, T/C [32] 80.1% | viability, T/C [33] 95.5% | viability, T/C [34] 85.9% | viability, T/C [35] 91.6% | viability, T/C [36] 61.8%
> 10000 nM: IC50 (second compound 0.0316 µM) | IC50 (second compound 0.1 µM) | IC50 (second compound 0.316 µM) | IC50 (second compound 1 µM) | IC50 (second compound 3.16 µM) | IC50 (second compound 10 µM)
